Assay results taken from US20210403435A1, “HERBICIDAL COMPOUNDS” (SYNGENTA CROP PROTECTION AG, priority 2018, published 2021).
Where a name gives a salt, the structure may show the parent alone.

Legend:
Experiment in all cases: Post-emergence efficacy, glasshouse, evaluated after 13 days
Type in all cases: in vivo
[1] = system: Amaranthus palmeri (AMAPA); settings: post-emergence application, 500 g/Ha, evaluated after 13 days; for pest or weed control at 500 g/ha: Amaranthus palmeri, 312 h, read-out: Control of weed species AMAPA (100=total damage to plant; 0=no damage to plant)
Method in brief: (§1)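 Sprayed at 14 days after sowing with an emulsifiable IF50-based formulation in aqueous surfactant/ammonium sulphate diluent, the plants were kept in a 24/16 °C glasshouse with 14 h light. Visual herbicidal damage was recorded after 13 days on a 0–100 scale.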

[2] = system: Chenopodium album (CHEAL); settings: post-emergence application, 500 g/Ha, evaluated after 13 days; for pest or weed control at 500 g/ha: Chenopodium album, 312 h, read-out: Control of weed species CHEAL (100=total damage to plant; 0=no damage to plant)
Method in brief: as §1

[3] = system: Digitaria sanguinalis (DIGSA); settings: post-emergence application, 500 g/Ha, evaluated after 13 days; for pest or weed control at 500 g/ha: Digitaria sanguinalis, 312 h, read-out: Control of weed species DIGSA (100=total damage to plant; 0=no damage to plant)
Method in brief: as §1

[4] = system: Echinochloa crus-galli (ECHCG); settings: post-emergence application, 500 g/Ha, evaluated after 13 days; for pest or weed control at 500 g/ha: Echinochloa crus-galli, 312 h, read-out: Control of weed species ECHCG (100=total damage to plant; 0=no damage to plant)
Method in brief: as §1

Eleusine indica (ELEIN) = settings: post-emergence application, 500 g/Ha, evaluated after 13 days; for pest or weed control at 500 g/ha: Eleusine indica, 312 h, read-out: Control of weed species ELEIN (100=total damage to plant; 0=no damage to plant)
Method in brief: as §1

[5] = system: Euphorbia heterophylla (EPHHL); settings: post-emergence application, 500 g/Ha, evaluated after 13 days; for pest or weed control at 500 g/ha: Euphorbia heterophylla, 312 h, read-out: Control of weed species EPHHL (100=total damage to plant; 0=no damage to plant)
Method in brief: as §1

[6] = system: Ipomoea hederacea (IPOHE); settings: post-emergence application, 500 g/Ha, evaluated after 13 days; for pest or weed control at 500 g/ha: Ipomoea hederacea, 312 h, read-out: Control of weed species IPOHE (100=total damage to plant; 0=no damage to plant)
Method in brief: as §1

Lolium perenne (LOLPE) = settings: post-emergence application, 500 g/Ha, evaluated after 13 days; for pest or weed control at 500 g/ha: Lolium perenne, 312 h, read-out: Control of weed species LOLPE (100=total damage to plant; 0=no damage to plant)
Method in brief: as §1

Setaria faberi (SETFA) = settings: post-emergence application, 500 g/Ha, evaluated after 13 days; for pest or weed control at 500 g/ha: Setaria faberi, 312 h, read-out: Control of weed species SETFA (100=total damage to plant; 0=no damage to plant)
Method in brief: as §1

Row | SMILES | pest or weed control at 500 g/ha [1] [%] | pest or weed control at 500 g/ha [2] [%] | pest or weed control at 500 g/ha [3] [%] | pest or weed control at 500 g/ha [4] [%] | pest or weed control at 500 g/ha (Eleusine indica (ELEIN)) [%] | pest or weed control at 500 g/ha [5] [%] | pest or weed control at 500 g/ha [6] [%] | pest or weed control at 500 g/ha (Lolium perenne (LOLPE)) [%] | pest or weed control at 500 g/ha (Setaria faberi (SETFA)) [%] | Control of weed species AMAPA (100=total damage to plant; 0=no damage to plant) [1] | Control of weed species CHEAL (100=total damage to plant; 0=no damage to plant) [2] | Control of weed species DIGSA (100=total damage to plant; 0=no damage to plant) [3] | Control of weed species ECHCG (100=total damage to plant; 0=no damage to plant) [4] | Control of weed species ELEIN (100=total damage to plant; 0=no damage to plant) (Eleusine indica (ELEIN)) | Control of weed species EPHHL (100=total damage to plant; 0=no damage to plant) [5] | Control of weed species IPOHE (100=total damage to plant; 0=no damage to plant) [6] | Control of weed species LOLPE (100=total damage to plant; 0=no damage to plant) (Lolium perenne (LOLPE)) | Control of weed species SETFA (100=total damage to plant; 0=no damage to plant) (Setaria faberi (SETFA))
1 | Cn1ncnc1CCNC(=O)c1cc[n+](CCC(=O)O)nc1 [Compound A144] | 100 | 100 | 80 | 60 | 100 | 90 | 50 | 60 | 90 |  |  |  |  |  |  |  |  | 
2 | CCNC(=O)c1cc[n+](CCCOS(=O)(=O)[O-])nc1 [Compound A83] |  |  |  |  |  |  |  |  |  | 90 | 90 | 90 | 90 | 90 | 90 | 80 | 80 | 60
3 | CCNC(=O)c1cc[n+](CC(C)C(=O)O)nc1 (stereo not drawn) [Compound A60] | 100 | 20 | 100 | 60 | 100 | 90 | 70 | 100 | 100 |  |  |  |  |  |  |  |  | 
4 | CC(C)NC(=O)c1cc[n+](CCC(=O)[O-])nc1 [Compound A6] | 100 | 100 | 90 | 50 | 70 | 50 | 60 | 90 | 90 |  |  |  |  |  |  |  |  | 
5 | CC(=O)CNC(=O)c1cc[n+](CCC(=O)O)nc1 [Compound A129] | 100 | 100 | 100 | 60 | 90 | 80 | 20 | 70 | 100 |  |  |  |  |  |  |  |  | 
6 | C#CCNC(=O)c1cc[n+](CCS(=O)(=O)[O-])nc1 [Compound A16] | 100 | 90 | 70 | 90 | 90 | 80 | 80 | 60 | 70 |  |  |  |  |  |  |  |  | 
7 | O=C(NCc1ccc(F)cc1)c1cc[n+](CCS(=O)(=O)[O-])nc1 [Compound A23] | 100 | 70 | 60 | 70 | 60 | 60 | 50 | 20 | 70 |  |  |  |  |  |  |  |  | 
8 | O=C(O)CC[n+]1ccc(C(=O)N2CCSCC2)cn1 [Compound A112] | 100 | 90 | 100 | 40 | 70 | 90 | 50 | 30 | 90 |  |  |  |  |  |  |  |  | 
9 | O=C(O)CC[n+]1ccc(C(=O)NCc2nccs2)cn1 [Compound A146] | 80 | 80 | 100 | 100 | 80 | 20 | 20 | 100 | 90 |  |  |  |  |  |  |  |  | 
10 | CC(=O)CCNC(=O)c1cc[n+](CCC(=O)O)nc1 [Compound A130] | 100 | 90 | 100 | 50 | 70 | 20 | 10 | 70 | 100 |  |  |  |  |  |  |  |  | 
11 | O=C(c1cc[n+](CCS(=O)(=O)[O-])nc1)N1CCOCC1 [Compound A28] | 100 | 90 | 70 | 50 | 70 | 80 | 60 | 60 | 70 |  |  |  |  |  |  |  |  | 
12 | Cn1cnc(CNC(=O)c2cc[n+](CCC(=O)O)nc2)n1 [Compound A147] | 100 | 90 | 100 | 90 | 90 | 80 | 40 | 90 | 80 |  |  |  |  |  |  |  |  | 
13 | O=C(O)CC[n+]1ccc(C(=O)N2CCOCC2)cn1 [Compound A29] | 100 | 90 | 90 | 90 | 90 | 100 | 50 | 50 | 90 |  |  |  |  |  |  |  |  | 
14 | CN(C)S(=O)(=O)CCNC(=O)c1cc[n+](CCC(=O)O)nc1 [Compound A110] | 90 | 50 | 100 | 50 | 30 | 60 | 20 | 60 | 90 |  |  |  |  |  |  |  |  | 
15 | C=CCNC(=O)c1cc[n+](CCC(=O)O)nc1 [Compound A19] | 100 | 90 | 100 | 80 | 90 | 90 | 70 | 80 | 80 |  |  |  |  |  |  |  |  | 
16 | CCNC(=O)c1cc[n+](CCC(=O)O)nc1 [Compound A43] | 100 | 90 | 100 | 60 | 100 | 100 | 70 | 50 | 100 |  |  |  |  |  |  |  |  | 
17 | CN(C(=O)c1cc[n+](CCC(=O)O)nc1)c1ccccc1 [Compound A38, 3-[4-[methyl(phenyl)carbamoyl]pyridazin-1-ium-1-yl]propanoic acid trifluoroacetate] | 100 | 90 | 70 | 60 | 60 | 80 | 40 | 20 | 90 |  |  |  |  |  |  |  |  | 
18 | O=C(O)CC[n+]1ccc(C(=O)NCc2ccccc2)cn1 [Compound A21] | 90 | 90 | 70 | 90 | 90 | 90 | 60 | 40 | 60 |  |  |  |  |  |  |  |  | 
19 | O=C(O)CC[n+]1ccc(C(=O)Nc2nccs2)cn1 [Compound A102] | 100 | 60 | 0 | 0 | 0 | 20 | 20 | 0 | 10 |  |  |  |  |  |  |  |  | 
